The values that follow come from patent US8334316B2, “Substituted organosulfur compounds and methods of using thereof” (ACEA Biosciences, Inc., priority 2004, dated 2012).

Holding throughout (format): cell-based
Experiment [1] relates to MCF7 (human breast cancer cell line). The experiment is described as follows: MTT assay IC50 (48 h), MCF7. Particulars: MCF-7, 48 hours. On the procedure:
(§1) In another assay format, a test compound is assayed for its cytotoxicity and/or cytostatic effect on certain cancer cell types, using endpoint assay methods. Cells in the NCI cancer cell panel may be used. Cells after a pre-incubation for certain length of time (for example, 8 hrs or 24 hrs) are incubated with a test compound at serially-diluted concentrations (for example, five 10-fold dilutions) for 24 hrs and/or 48 hrs, and/or other specific length of time. The dose dependent cytotoxicity and/or cytostatic effects of test compounds can then be tested and evaluated using the 3-(4,5-dimethylthiazol-2-yl)-2,5-diphenyltetrazolium bromide (MTT) assay method, as described by, for example, Boyd (In Principle of Practice of Oncology, Devita, J. T., Hellman, S. and Rosenberg S. A. (Eds), 1989, Vol, 3, PPO Update, No. 10).
(§2) The anticancer potency of DBTS and its derivatives were tested in 8 different types of human cancer cell lines using the RT-CES system and MTT assay. The 8 cancer cell lines were HT1080 (the human fibrosarcoma cell line), H460 (human non small cell lung cancer cell line), OVCAR4 (the human ovarian cancer cell line), MCF7 (human breast cancer cell line) MDA-MB231 (M231, the human breast cancer cell line) A2780 (the human […] cancer cell line) Jurkat (the human T cell leukemia cell line). The test DBTS derivatives include ACEA100107, ACEA100108, ACEA100109, ACEA100111, ACEA100115, ACEA100116, ACEA100117, ACEA100118, ACEA100119, and ACEA100120.
(§3) For the MTT assay, the cells were seeded into the regular 96× well plates at the cell seeding density ranging from 5000 cells/well to 15,000 cells/well. The cells were incubated at 5% CO2 and 37° C. for overnight. The derivatives were serially diluted and added to the cells. The treatment was terminated after 48 hours of incubation by adding MTT staining reagent. After 4 hours, the staining was stopped by the stop buffer and then the calorimetric measurement was carried out on a microtiter plate reader at dual wave length, 650 nm and 550 nm.

In experiment [2] the test system is A2780 cells. Description: RT-CES system cell proliferation/cytotoxicity IC50, A2780. Particulars: Homo sapiens, time point of maximum inhibition. From the text:
(§4) The RT-CES system comprises three components, an electronic sensor analyzer, a device station and 16× or 96× microtiter plate devices. Microelectrode sensor array was fabricated on glass slides with lithographical microfabrication methods and the electrode-containing slides are assembled to plastic trays to form electrode-containing wells. Each 16× (or 96×) microtiter plate device used in RT-CES system comprises up to 16 (or 96) such electrode-containing wells. The device station receives the 16× or 96× microtiter plate devices and is capable of electronically switching any one of the wells to the sensor analyzer for impedance measurement. In operation, the devices with cells cultured in the wells are placed into a device station that is located inside an incubator. Electrical cables connect the device station to the sensor analyzer. Under the RT-CES software control, the sensor analyzer can automatically select wells to be measured and continuously conduct impedance measurements. The impedance data from the analyzer is transferred to a computer, analyzed and processed by the integrated software.
(§5) To quantify cell status based on the measured cell-electrode impedance, a parameter termed Cell Index is derived, according to
(§6) [formula] where Rb(f) and Rcell(f) are the frequency dependent electrode resistances (a component of impedance) without cells or with cell present, respectively. N is the number of the frequency points at which the impedance is measured. Thus, Cell Index is a quantitative measure of the status of the cells in an electrode-containing well. Under the same physiological conditions, more cells attached on to the electrodes leads to larger Rcell(f) value, leading to a larger value for Cell Index. Furthermore, for the same number of cells present in the well, a change in the cell status such as morphology will lead to a change in the Cell Index. For example, an increase in cell adhesion or cell spreading leads to larger cell-electrode contact area which will lead to an increase in Rcell(f) and thus a larger value for Cell Index. The Cell Index may also be calculated using a formula different from the one described here. Other methods for calculating the Cell Index based on impedance measurement can be found in PCT application number PCT/US04/37696, fined on Nov. 12, 2004, PCT application number PCT/US05/04481, filed on Feb. 9, 2005, U.S. patent application Ser. No. 10/987,732, filed on Nov. 12, 2004, and U.S. patent application Ser. No. 11/055,639, filed on Feb. 9, 2005.
A2780 cells (human […]) were seeded into wells of 16× or 96× microtiter plate devices (electronic plates, i.e., the plates comprise microelectrode sensor arrays in the wells of the plate) with an initial seeding density of 20,000 cells per well and were pre-incubated in incubator under standard cell culture conditions for about 16.4 hrs. Dibenzyl trisulfide solution in DMSO was added into wells following the incubation period. The cell status was monitored prior to and after the compound addition using RT-CES system. The cell indexes of different wells were between 2.2 and 3.7 just before the compound addition. […] The cell index was normalized against the cell index values at a time point just after compound addition (about 17.5 hrs after cell seeding).
(§7) For the assay performed on the RT-CES system, the cells were seeded into the 16× or 96× microtiter plate devices (electronic plates, i.e., the plates comprise microelectrode sensor arrays in the wells of the plate) at the seeding density ranging from 5000 cells/well to 15,000 cells/well. The cells were incubated at 5% CO2 and 37° C. for overnight till the cell indices reached the growth phase where the cell index was between 0.8 and 1.2. Serially diluted compounds were then added to the cells followed by dynamic monitoring of the effect of the compounds on the cell proliferation and cytotoxicity. […]

In experiment [3] the test system is MCF7 (human breast cancer cell line). The experiment is described as follows: RT-CES system cell proliferation/cytotoxicity IC50, MCF7. Particulars: time point of maximum inhibition.
From the text: as §4, §5, §6
MCF-7 cells (human breast cancer cells) were seeded into wells of 16× or 96× microtiter plate devices (electronic plates, i.e., the plates comprise microelectrode sensor arrays in the wells of the plate) with an initial seeding density of 10,000 cells per well and were pre-incubated in incubator under standard cell culture conditions for about 44 hrs. Dibenzyl trisulfide solution in DMSO was added into wells following the incubation period. The cell status was monitored prior to and after the compound addition using RT-CES system. The cell indexes of different wells were between 1.2 and 1.5 just before the compound addition. […] The cell index was normalized against the cell index values at a time point just after compound addition (about 44.5 hrs after cell seeding).
as §7

For experiment [4], the system named is H460 (human non small cell lung cancer cell line). Description: MTT assay IC50 (48 h), H460. Particulars: NCI-H460, H460, 48 hours. On the procedure:
as §1, §2, §3
On the technique in general: Formazan colour is commonly taken as a measure of viable cells.

As usually defined, the IC50 is the concentration at which inhibition is half-maximal. A low value points to inhibition by little substance.

`Clc1ccc(CSSSCc2ccc(Cl)cc2)cc1` [ACEA100118, Di(p-chlorobenzyl)trisulfide]: the IC50 in experiment [1] is over 50 µM; in experiment [2], 0.7 µM; in experiment [3] it was 4.4 µM; in experiment [4] it was 7.95 µM.

In the case of `c1ccc(CSSSCc2ccccc2)cc1` [DBTS, Dibenzyl trisulfide], the IC50 in experiment [1] was over 50 µM; in experiment [2], 0.4 µM; in experiment [3], 6.6 µM; in experiment [4] it was 14.2 µM.

In the case of `Fc1ccc(CSSSCc2ccc(F)cc2)cc1` [ACEA100108, Di(p-fluorobenzyl)trisulfide], the concentration for half-maximal inhibition (IC50) in experiment [1] was over 50 µM; in experiment [2] it was 0.5 µM; in experiment [3], 2.15 µM; in experiment [4] it was 10.2 µM.

With `Cc1cccc(CSSSCc2cccc(C)c2)c1` [ACEA100116, di(m-methylbenzyl)trisulfide], the IC50 in experiment [1] was over 50 µM; in experiment [2] it was 0.75 µM; in experiment [3], 2.75 µM; in experiment [4], 5.4 µM.

Regarding `FC(F)(F)c1cccc(CSSSCc2cccc(C(F)(F)F)c2)c1` [ACEA100117, Di(m-trifluoromethylbenzyl)trisulfide], the IC50 in experiment [1] is over 50 µM; in experiment [2] it was 11.8 µM; in experiment [3], 48.8 µM; in experiment [4], over 50 µM.

Turning to `Clc1ccccc1CSSSCc1ccccc1Cl` [ACEA100115, Di(o-chlorobenzyl)trisulfide], the IC50 in experiment [1] was over 50 µM; in experiment [2] it was 0.75 µM; in experiment [3], 7.8 µM; in experiment [4], 11.8 µM.
